Experimental findings from patent US20200407683A1, “IN VITRO IMMUNE SYNAPSE SYSTEM AND METHOD OF IN VITRO […] RESPONSE USING THE SAME” (National Pingtung University of Science and Technology, priority 2018, published 2020) are described below.

The experiment relates to IL-2. Kind of experiment: In vitro immune synapse system, immune adjuvant immunostimulation: IL-2 level. It is filed as cell-based, pig. Particulars: 2 μg/well poly IC, in comparison to IL-18 (0.1 ng/well); Treg/APC system; FIG. 5; P<0.05. The procedure: In this Example, a commercial kit of porcine IL-2 and IL-10 was used for quantifying the IL-2 and IL-10 levels in the porcine cell supernatant. According to the steps of the specification provided in the kit, the standard liquid provided by the kit was diluted for later use, and a flow was described briefly below. Firstly, 100 μL of sample or diluted standard liquid was added into a 96-well plate and incubated for 1 hour. Next, 200 μL of biotinylated antibody reagent was added into the 96-well plate and incubated for another hour. […] Afterwards, 100 μL of stop solution was added to terminate the reaction in order to measure the absorbance. […]
Generally, the absorbance could be read by a commercial continuous spectrophotometer at a wavelength of 450/540 nm, and a standard curve was established by serially-diluted standard solution of various concentrations versus respective absorbances. Then, the cell cytokine concentration of each sample was calculated according to the regression equation of the standard curve, and a commercially statistical software (such as a SAS statistical program) was used to calculate significant difference between the means of all groups, as shown by the results of FIGS. 3A to 3B. […]

For poly-IC, the “IL-2 level in the immunological synapse” value is “significantly improve”.
